Legend:
[1] = tested on: PC3/PSC27 xenograft tumors; assay: PC3/PSC27 xenograft tumor terminal volume in NOD/SCID mice; format: in vivo; conditions: for tumor volume, drug used alone: chemotherapeutic drug alone; for tumor volume, drug administered together with PCC1: chemotherapeutic drug combined with PCC1, end of 8th week
From the text: Every two weeks was a dosing cycle, and MIT (mitoxantrone) was intraperitoneally administered to the mice on the first day of the 3rd/5th/7th weeks. From the first day of the 5th week, the mice were intraperitoneally administrated with PCC1, once a week. After the 8-week course of treatment, the mice were dissected for pathological identification and expression analysis.
Chemotherapeutic drug MIT alone or together with anti-senescence drug PCC1 was used to administer mice, and after the 8th week, the tumor size of each group was compared and analyzed.
All experimental mouse experiments were carried out in strict accordance with the relevant regulations of the Institutional Animal Care and Use Committee (IACUC), Shanghai Institutes for Biological Sciences, Chinese Academy of Sciences. Immunodeficient mice (NOD-SCID mice, ICR) (body weight about 25 g) aged 6-8 weeks were used for animal experiments related to the present patent. Stromal cells PSC27 and epithelial cells PC3 were mixed at a predetermined ratio of 1:4, and each graft contained 1.25×10^6 cells for tissue remodeling. The xenograft tumors were implanted into mice by subcutaneous transplantation, and the animals were euthanized 8 weeks after the end of the transplantation surgery. Tumor volume was calculated according to the following formula: V=(π/6)×[…] (V, volume; l, length; w, width).
(§1) In a preclinical treatment trial, subcutaneously transplanted mice were fed with a standard experimental diet, after 2 weeks chemotherapy drugs mitoxantrone (MIT, dose: 0.2 mg/kg) and/or procyanidin C1 (PCC1) (500 μl, dose: 10 mg/kg) via intraperitoneal administration. The time points were: the former was administrated on the first day of the 3rd, 5th and 7th weeks, and the latter was administrated on the first day of the 5th and 7th weeks. A total of 3 cycles of MIT administration were carried out throughout the course of treatment, and each cycle lasted for 2 weeks. After the course of treatment, mouse tumors were harvested for volume measurement and histological analysis. Each mouse cumulatively received 0.6 mg/kg body weight of MIT and […] body weight of PCC1. In order to cause systemic expression of SASP factor induced by chemotherapy, MIT was administered to mice through […] according to the above steps and sequence, but the dose was reduced to 0.1 mg/kg body weight/each time (the cumulative dose of MIT received in the whole course of treatment was 0.3 mg/kg body weight) to reduce drug-related toxicity. The chemotherapy experiment ended at the end of the 8th week, and the mice were dissected immediately after sacrifice, and the xenograft tumors were collected and used for pathological system analysis.

[2] = tested on: senescent cells in tumor tissue; assay: SA-β-Gal staining of tumor tissue in PC3/PSC27 tumor-bearing mice; format: in vivo; conditions: MIT alone
Experimental: Representative pictures after SA-β-Gal staining. Scale bar, 100 μm.
A P>0.05; **, P<0.01; ***, P<0.001.
as §1, with “The chemotherapy experiment ended at the end of the 8th week, and the mice were dissected immediately after sacrifice, and the xenograft tumors were collected and used for pathological system analysis.” left out

[3] = tested on: cancer cells in the lesion; assay: DNA damage and apoptosis in tumor lesions (LCM, caspase 3 cleavage IHC); format: in vivo, mice; conditions: single agent vs placebo, 7 days after first PCC1 administration
From the text: The signals of Caspase 3 cleaved […] in the lesion of each group of mice were in sharp contrast. Scale bar, 200 μm.
To investigate mechanisms directly supporting this senescence-associated pattern with expression and reversal of SASP in MIT-administered mice, we dissected tumors in animals treated with both drugs 7 days after the first PCC1 administration, and the time point of 7 days after administration was selected mainly because drug-resistant clones had not yet formed in cancer cells in the lesion at this time. […] As supporting evidence, when PCC1 was applied during treatment, caspase 3 cleavage activity was increased, which was a typical hallmark of apoptosis (FIG. 29).

SASP factors = assay: LCM and qRT-PCR of SASP factors in mouse lesions; format: in vivo, mice; conditions: MIT, mainly in stromal cells
Experimental: The stromal cells and cancer cells were specifically separated by LCM technology, total RNA was prepared and used for SASP expression detection. A P>0.05; *, P<0.05; **, P<0.01; ***, P<0.001.
as §1, with “The chemotherapy experiment ended at the end of the 8th week, and the mice were dissected immediately after sacrifice, and the xenograft tumors were collected and used for pathological system analysis.” left out

HUVECs = conditions: cited from earlier work
[4] = tested on: senescent human preadipocytes; conditions: cited from earlier work
[5] = tested on: IMR90 fetal lung fibroblast-like cell lines; conditions: culture-adapted; cited from earlier work
[6] = tested on: senescent primary human lung fibroblasts; conditions: cited from earlier work
senescent PSC27 cells = assay: Caspase 3/7 activity / drug-induced apoptosis in senescent cells; format: cell-based, human; conditions: QVD-OPh, 50 μM PCC1
Experimental: PSC27 cells gradually entered the senescent stage after being treated with BLEO for 12 hours under culture conditions. 50 μM PCC1 was added to the medium of senescent cells starting from day 7, NucLight Rapid Red reagent was used to label the cells, and caspase 3/7 reagent (IncuCyte) was used for apoptosis detection. Caspase 3/7 activity was detected every 4 hours (n=3).
Statistical differences are obtained by two-way ANOVA (Turkey' test).
PSC27 cells were plated in a 96-well dish, and the cells were induced to senescence under the treatment of 50 μg/mL BLEO. PCC1 and ABT263 were added at concentrations of 50 μM and 1.0 μM, respectively. Cell culture medium was supplemented with Incucyte Nuclight fast Red Reagent (Essen Bioscience) and Incucyte C-3/7 Apoptosis Reagent (Essen Bioscience). Representative field of view was selected to take pictures.

PSC27 cells = assay: Bleomycin-induced senescence of PSC27 stromal cells (SA-β-Gal, BrdU, DDR foci staining); format: cell-based, human
Experimental: The primary normal human prostate stromal cell line PSC27 (obtained from Fred Hutchinson Cancer Research Center, USA) was cultured in an incubator at 37° C. and 5% CO2, and proliferated and passaged in PSCC complete culture medium.
To cause cell damage, 50 μg/mL bleomycin (BLEO) was added to the culture medium when PSC27 cells grew to 80% (abbreviated as […]). After 12 hours of drug treatment, the cells were simply washed 3 times with PBS, left in the culture medium for 7-10 days, and then the subsequent experiments were performed.
For immunofluorescent staining, target cells were preseeded on coverslips for at least 24 h after culture in dishes. After a brief wash, the cells were fixed with 4% paraformaldehyde in PBS for 8 min and blocked with 5% normal goat serum (NGS, Thermo Fisher) for 30 min. Mouse monoclonal antibody-anti-phospho-Histone H2A.X (Ser139) (clone JBW301, Millipore) and mouse monoclonal antibody-anti-BrdU (Cat# 347580, BD Biosciences), and secondary antibody Alexa Fluor® 488 (or 594)-Eurolink's F(ab')2 were sequentially added to the slides coated with the fixed cells. Nuclei were counterstained with 2 μg/m DAPI. The most representative image was selected from the three observation fields for data analysis and result display. FV1000 laser scanning confocal microscope (Olympus) was used to acquire confocal fluorescence images of cells.
Senescence-associated (3-galactosidase (SA-β-Gal) staining was performed following a previously reported procedure (Debacq-Chainiaux et al., 2009). Briefly, cells in culture dishes were washed with PBS and fixed at room temperature. Cells were fixed in 2% formaldehyde and 0.2% glutaraldehyde for 3 minutes. SA-β-Gal was used for staining with freshly prepared staining solution overnight at 37° C. Images were taken on the next day and the percentage of positive cells per unit area was calculated.

For CC(=O)O[C@@]12CO[C@@H]1C[C@H](O)[C@@]1(C)C(=O)[C@H](O)C3=C(C)[C@@H](OC(=O)[C@H](O)[C@@H](NC(=O)OC(C)(C)C)c4ccccc4)C[C@@](O)([C@@H](OC(=O)c4ccccc4)[C@H]21)C3(C)C [DOC, docetaxel], the “tumor volume, drug used alone” value ([1]; end of 8th week) was “could reduce the tumor volume” and the “tumor volume, drug administered together with PCC1” value (“tumor volume … with PCC1” for short) [1] was “no further tumor shrinkage”.
With COc1cccc2c1C(=O)c1c(O)c3c(c(O)c1C2=O)C[C@@](O)(C(=O)CO)C[C@@H]3O[C@H]1C[C@H](N)[C@H](O)[C@H](C)O1 [DOX, doxorubicin] the “tumor volume … with PCC1” value [1] was “could roughly repeat the significant effect”.
In the case of O=C1c2c(O)ccc(O)c2C(=O)c2c(NCCNCCO)ccc(NCCNCCO)c21 [MIT, mitoxantrone, reference compound], the “senescent cells in tumor tissue” value [2] is reported as “induced the appearance of a large number of senescent cells”, the “reduction in tumor size compared to placebo” value ([1]; single agent, i.p., end of 8th week) is reported as 44.0% and the “degree of DNA damage and apoptosis” value [3] is reported as “significant increase”. The “expression of SASP factors (IL6, CXCL8, SPINK1, WNT16B, GM-CSF, MMP3, IL1α) and p16INK4A in lesions” value (SASP factors) was “significantly elevated”.
For CC1(C)CCC(c2ccc(Cl)cc2)=C(CN2CCN(c3ccc(C(=O)NS(=O)(=O)c4ccc(N[C@H](CCN5CCOCC5)CSc5ccccc5)c(S(=O)(=O)C(F)(F)F)c4)cc3)CC2)C1 [Navitoclax], the “ability to target senescent cells” value (HUVECs) is given as “able to target”, the “ability to target senescent cells” value [4] is given as “not” and the “ability to target senescent cells” value [5] is given as “can target and kill senescent cells”. The “ability to target senescent cells” value [6] was “less effective”.
With CC(C)[C@H](NC(=O)c1ccc2ccccc2n1)C(=O)N[C@@H](CC(=O)O)C(=O)COc1c(F)cccc1F [QVD, reference compound] the “effect of pan-caspase inhibitor on senolytic activity of PCC1” value (senescent PSC27 cells) was “could prevent the killing of senescent cells by PCC1”.
For CC[C@]1(O)C[C@H]2CN(CCc3c([nH]c4ccccc34)[C@@](C(=O)OC)(c3cc4c(cc3OC)N(C=O)[C@H]3[C@@](O)(C(=O)OC)[C@H](OC(C)=O)[C@]5(CC)C=CCN6CC[C@]43[C@@H]65)C2)C1 [VIN, vincristine], the “tumor volume, drug used alone” value ([1]; end of 8th week) was “could reduce the tumor volume” and the “tumor volume … with PCC1” value [1] was “no further tumor shrinkage”.
In the case of bleomycin, the “positive rate of SA-β-Gal staining” value (PSC27 cells; PSC27, 50 μg/mL BLEO 12 h, 7-10 days later, vs CTRL) is reported as “significant increase”, the BrdU incorporation rate (PSC27 cells; PSC27, BLEO treated vs CTRL) is reported as “greatly reduced” and the “DNA damage repair foci (DDR foci)” value (PSC27 cells; PSC27, BLEO treated vs CTRL) is reported as “significantly increased”.

— patent publication US12721832B2, “Anti-senescence plant polyphenol drug downregulating senescence-related secretory phenotype and use thereof” (BYHEALTH CO., LTD., priority 2021, dated 2026)
